Biological target: T1, CDK2 (Homo sapiens, UniProt P24941)
T1 construct: endogenous in cells; host or cells: MKN1 cells
Experiment: CDK2 degradation in MKN1 cells (AlphaLISA)
Assay type: cell-based
Parameters: key to CDK2 degradation 14 h: Mean external-Abs DC50 (nM): A (<100 nM); B (≥100-500 nM); C (>500-1000 nM); D (>1000 nM); E (not achieved)
Conditions: 14 h incubation; for DC50: read-out: CDK2 degradation 14 h: Mean external-Abs DC50
Procedure: Degradation of CDK2 in MKN1 cells was measured using AlphaLISA technology (PerkinElmer ALSU-TCDK2-A10K). MKN1 cells were maintained in RPMI1640 medium containing 10% FBS+1× penn/strep. Cells were seeded in 96-well plates (Corning 3599) at a density of 2e4 cells per well in 80 μL of fresh complete growth medium. Cells were incubated overnight at 37° C., 5% CO2. Compounds were then added to the cell assay plates with a final top concentration of 10 μM in a 1:5 dilution series with a total of 11 doses (0.001 nM-10 μM). The final volume per well was 160 μL and the final DMSO concentration was 0.1%. Additionally, wells containing no cells and only complete growth medium were also maintained on the cell assay plates (‘no cell’ wells) and processed along with experimental wells. After 14 hour-incubation at 37° C., 5% CO2, the medium was removed and the cells were washed once with 100 μL of 1×PBS. Following removal of PBS, 40 μL of 1× Lysis Buffer containing 1× protease and phosphatase inhibitors (Roche 4693116001; Roche 4906837001) were added to each well. The cell assay plate was agitated on a plate shaker at 350 rpm for 10 minutes at room temperature. 10 μL of each cell lysate were transferred to a 384-well plate (PerkinElmer 6007290). 10 μL of control lysates (from PerkinElmer ALSU-TCDK2-A10K kit) were added to separate wells to generate a standard curve. Activation Buffer was prepared by diluting 25-fold in combined Reaction Buffer 1 and Reaction Buffer 2. Acceptor Beads were diluted 50-fold in combined Reaction Buffers. 5 μL of Acceptor Mix were added to each well. The plate was sealed with Topseal-Aadhesive film, covered with foil, and incubated in the dark for 1 hour at room temperature. Under subdued light, the Donor Beads were diluted 50-fold in Dilution Buffer. 5 μL of Donor Mix were added to each well under subdued light. The plate was sealed with Topseal-A adhesive film, covered with foil, and incubated in the dark for 1 hour at room temperature. Under subdued light, the plates were analyzed on an EnVision Microplate Reader (PerkinElmer Model 2009-0030). The average signal from ‘no cell’ wells was subtracted from the signal in experimental wells prior to calculating Alpha signal for test compounds and negative control (0.100 DMSO). The data were analyzed using Xlfit (v5.3. 1.3) and the dose-dependent CDK2 degradation data were fit using a four-parameter logistic model to calculate DC50.

Row | CDK2 degradation 14 h: Average Dmax % | DC50 [nM] | CDK2 degradation 14 h: Mean external-Abs DC50 (nM) | Compound
1 | A (A (>75% o)) | 100 to 500 | – | Cc1cc(S(=O)(=O)C2CC3(CCN(CC4CCN(c5cccc(OC6CCC(=O)NC6=O)c5)CC4)CC3)C2)ccc1Nc1ncc2cc(Cl)c(=O)n(C3CCCC3)c2n1 (stereo not drawn) [I-74]
2 | B (B (>50% -75%)) | 100 to 500 | – | Cc1cc(S(=O)(=O)C2CC3(CCN(CC4CCN(c5ccc(NC6CCC(=O)NC6=O)cc5C)CC4)CC3)C2)ccc1Nc1ncc2cc(Cl)c(=O)n(C3CCCC3)c2n1 (stereo not drawn) [I-75]
3 | B (B (>50% -75%)) | 500 to 1000 | – | Cc1cc(S(=O)(=O)C2CC3(CCN(CC4CCN(c5ccc(NC6CCC(=O)NC6=O)c(C)c5)CC4)CC3)C2)ccc1Nc1ncc2cc(Cl)c(=O)n(C3CCCC3)c2n1 (stereo not drawn) [I-76]
4 | A (A (>75% o)) | < 100 | – | COc1cc(NC2CCC(=O)NC2=O)ccc1N1CCC(CN2CCC3(CC2)CC(S(=O)(=O)c2ccc(Nc4ncc5cc(Cl)c(=O)n(C6CCCC6)c5n4)c(C)c2)C3)CC1 (stereo not drawn) [I-77]
5 | D (D (<25%)) | > 1000 | – | Cc1cc(S(=O)(=O)C2CC3(CCN(CC4CCN(c5cccc(N6CCC(=O)NC6=O)c5)CC4)CC3)C2)ccc1Nc1ncc2cc(Cl)c(=O)n(C3CCCC3)c2n1 [I-78]
6 | B (B (>50% -75%)) | 100 to 500 | – | Cc1cc(S(=O)(=O)C2CC3(CCN(CC4CCN(c5ccc(N6CCC(=O)NC6=O)cc5)CC4)CC3)C2)ccc1Nc1ncc2cc(Cl)c(=O)n(C3CCCC3)c2n1 [I-79]
7 | C (C (>25% -50%)) | – | E | Cc1cc(S(=O)(=O)C2CC3(CCN(CC4CCN(c5cccc(C6CCC(=O)NC6=O)c5)CC4)CC3)C2)ccc1Nc1ncc2cc(Cl)c(=O)n(C3CCCC3)c2n1 (stereo not drawn) [I-80]
8 | A (A (>75% o)) | < 100 | – | Cc1cc(S(=O)(=O)C2CC3(CCN(CC4CCN(c5ccc(C6CCC(=O)NC6=O)cc5)CC4)CC3)C2)ccc1Nc1ncc2cc(Cl)c(=O)n(C3CCCC3)c2n1 (stereo not drawn) [I-81]
9 | A (A (>75% o)) | < 100 | – | Cc1cc(S(=O)(=O)C2CC3(CCN(CC4CCN(c5cccc6c(N7CCC(=O)NC7=O)cncc56)CC4)CC3)C2)ccc1Nc1ncc2cc(Cl)c(=O)n(C3CCCC3)c2n1 [I-82]
10 | A (A (>75% o)) | < 100 | – | Cc1cc(S(=O)(=O)C2CC3(CCN(CC4CCN(c5cccc6c5n(C)c(=O)n6C5CCC(=O)NC5=O)CC4)CC3)C2)ccc1Nc1ncc2cc(C(F)F)c(=O)n(C3CCCC3)c2n1 (stereo not drawn) [I-86]
11 | A (A (>75% o)) | < 100 | – | Cc1cc(S(=O)(=O)C2CC3(CCN(CC4CCN(c5cccc(NC6CCC(=O)NC6=O)c5)CC4)CC3)C2)ccc1Nc1ncc2cc(Cl)c(=O)n(C3CCCC3)c2n1 (stereo not drawn) [I-87]
12 | A (A (>75% o)) | < 100 | – | COc1ccc2c(c1N1CCC(CN3CCC4(CC3)CC(S(=O)(=O)c3ccc(Nc5ncc6cc(Cl)c(=O)n(C7CCCC7)c6n5)c(C)c3)C4)CC1)n(C)c(=O)n2C1CCC(=O)NC1=O (stereo not drawn) [I-88]
13 | B (B (>50% -75%)) | 100 to 500 | – | Cc1cc(S(=O)(=O)C2CC3(CCN(CC4CCN(c5ccc(NC6CCC(=O)NC6=O)c(F)c5)CC4)CC3)C2)ccc1Nc1ncc2cc(Cl)c(=O)n(C3CCCC3)c2n1 (stereo not drawn) [I-90]
14 | A (A (>75% o)) | < 100 | – | Cc1cc(S(=N)(=O)C2CC3(CCN(CC4CCN(c5cccc6c5n(C)c(=O)n6C5CCC(=O)NC5=O)CC4)CC3)C2)ccc1Nc1ncc2cc(Cl)c(=O)n(C3CCCC3)c2n1 (stereo not drawn) [I-93]
15 | A (A (>75% o)) | < 100 | – | Cc1cc(S(=O)(=O)C2CC3(CCN(CC4CCN(c5cccc6c5n(C)c(=O)n6C5CCC(=O)NC5=O)CC4)CC3)C2)ccc1Nc1ncc(C(F)(F)F)c(C2CCC(C)(O)CC2)n1 (stereo not drawn) [I-119]
16 | A (A (>75% o)) | < 100 | – | Cc1cc(S(=O)(=O)C2CC3(CCN(CC4CCN(c5ccc6c(c5F)n(C)c(=O)n6C5CCC(=O)NC5=O)CC4)CC3)C2)ccc1Nc1ncc2c(n1)N(C1CCCC1)C(=O)N(C)C2 (stereo not drawn) [I-125]
17 | A (A (>75% o)) | < 100 | – | Cc1cc(S(=O)(=O)C2CC3(CCN(CC4CCN(c5ccc6c(c5F)n(C)c(=O)n6C5CCC(=O)NC5=O)CC4)CC3)C2)ccc1Nc1ncc2cc(Cl)c(=O)n(C(C)C)c2n1 (stereo not drawn) [I-128]

Row | CDK2 degradation 14 h: Average Dmax % | DC50 [nM] | CDK2 degradation 14 h: Mean external-Abs DC50 (nM) | Compound
18 | C (C (>25% -50%)) | – | E | Cc1cc(S(=O)(=O)C2CC3(CCN(CC4CCN(c5ccc6c(c5F)n(C)c(=O)n6C5CCC(=O)NC5=O)CC4)CC3)C2)ccc1Nc1ncc2cc(Cl)c(=O)n(C3CCOC3)c2n1 (stereo not drawn) [I-129]
19 | D (D (<25%)) | > 1000 | – | Cc1cc(S(=O)(=O)C2CC3(CCN(CC4CCN(c5ccc6c(c5F)n(C)c(=O)n6C5CCC(=O)NC5=O)CC4)CC3)C2)ccc1Nc1ncc2cc(Cl)c(=O)n(C3CCOCC3)c2n1 (stereo not drawn) [I-130]
20 | B (B (>50% -75%)) | < 100 | – | Cc1cc(S(=O)(=O)C2CC3(CCN(CC4CCN(c5ccc(NC6CCC(=O)NC6=O)cc5F)CC4)CC3)C2)ccc1Nc1ncc2cc(Cl)c(=O)n(C3CCCC3)c2n1 (stereo not drawn) [I-152]
21 | B (B (>50% -75%)) | > 1000 | – | Cc1cc(S(=O)(=O)N2CCC(C(F)(F)CN3CCN(c4cccc5c4n(C)c(=O)n5C4CCC(=O)NC4=O)CC3)CC2)ccc1Nc1ncc2cc(Cl)c(=O)n(C3CCCC3)c2n1 (stereo not drawn) [I-163]
22 | A (A (>75% o)) | < 100 | – | Cc1cc(S(=O)(=O)N[C@H]2C[C@H](N3CCN(CC4CCN(c5ccc6c(c5)n(C)c(=O)n6C5CCC(=O)NC5=O)CC4)CC3)C2)ccc1Nc1ncc2cc(Cl)c(=O)n(C(C)C)c2n1 (stereo partly drawn) [I-203]
23 | B (B (>50% -75%)) | 100 to 500 | – | Cc1cc(S(=O)(=O)C2CC3(CCN(CC4CCN(c5ccc(NC6CCC(=O)NC6=O)c6ccccc56)CC4)CC3)C2)ccc1Nc1ncc2ccc(=O)n(C(C)C)c2n1 (stereo not drawn) [I-206]
24 | D (D (<25%)) | > 1000 | – | Cc1cc(S(=O)(=O)C2CC3(CCN(C(=O)COC4CN(c5ccc6c(c5F)n(C)c(=O)n6C5CCC(=O)NC5=O)C4)CC3)C2)ccc1Nc1ncc2ccc(=O)n(C3CCCC3)c2n1 (stereo not drawn) [I-259]
25 | A (A (>75% o)) | < 100 | – | Cc1cc(S(=O)(=O)N[C@H]2C[C@H](N3CCN(CC4CCN(c5ccc(NC6CCC(=O)NC6=O)cc5C)CC4)CC3)C2)ccc1Nc1ncc2ccc(=O)n(C3CCCC3)c2n1 (stereo partly drawn) [I-276]
26 | C (C (>25% -50%)) | > 1000 | – | Cc1cc(S(=O)(=O)N2CCC(Cn3cnc4c3CCN(c3ccc5c(c3F)n(C)c(=O)n5C3CCC(=O)NC3=O)C4)CC2)ccc1Nc1ncc2ccc(=O)n(C3CCCC3)c2n1 (stereo not drawn) [I-280]
27 | A (A (>75% o)) | < 100 | – | Cc1cc(S(=O)(=O)C2CC3(CCN(CC4CCN(c5ccc6c(c5F)n(C)c(=O)n6C5CCC(=O)NC5=O)CC4)CC3)C2)ccc1Nc1ncc2cc(Cl)c(=O)n(C(C)C3CC3)c2n1 (stereo not drawn) [I-285]
28 | A (A (>75% o)) | < 100 | – | Cc1cc(S(=O)(=O)C2CC3(CCN(CC4CCN(c5ccc6c(c5F)n(C)c(=O)n6C5CCC(=O)NC5=O)CC4)CC3)C2)ccc1Nc1cc2c(ccc(=O)n2C2CCCC2)cn1 (stereo not drawn) [I-286]
29 | A (A (>75% o)) | < 100 | – | Cc1cc(S(=O)(=O)N2CCC(CCN3CCN(c4ccc5c(c4F)n(C)c(=O)n5C4CCC(=O)NC4=O)CC3)CC2)ccc1Nc1ncc2ccc(=O)n(C3CCCC3)c2n1 (stereo not drawn) [I-287]
30 | A (A (>75% o)) | < 100 | – | Cc1cc(S(=O)(=O)C2CC3(CCN(CC4CCN(c5ccc6c(oc(=O)n6C6CCC(=O)NC6=O)c5F)CC4)CC3)C2)ccc1Nc1ncc2cc(Cl)c(=O)n(C3CCCC3)c2n1 (stereo not drawn) [I-302]
31 | A (A (>75% o)) | 100 to 500 | – | Cc1cc(S(=O)(=O)C2CC3(CCN(CC4CCN(c5cnc6c(c5)c(C)cn6C5CCC(=O)NC5=O)CC4)CC3)C2)ccc1Nc1ncc2cc(Cl)c(=O)n(C3CCCC3)c2n1 (stereo not drawn) [I-305]
32 | A (A (>75% o)) | < 100 | – | Cc1cc(S(=O)(=O)NCCOC2CCC(CN3CCN(c4ccc(NC5CCC(=O)NC5=O)cc4C)CC3)CC2)ccc1Nc1ncc2cc(Cl)c(=O)n(C3CCCC3)c2n1 (stereo not drawn) [I-308]
33 | A (A (>75% o)) | 100 to 500 | – | CCOc1cc(NC2CCC(=O)NC2=O)ccc1N1CCC(CN2CCC3(CC2)CC(S(=O)(=O)c2ccc(Nc4ncc5cc(Cl)c(=O)n(C6CCCC6)c5n4)c(C)c2)C3)CC1 (stereo not drawn) [I-309]

Source: patent US20240173419A1, “CDK2 DEGRADERS AND USES THEREOF” (Kymera Therapeutics, Inc., priority 2022, published 2024)
